From the Kinase Knowledgebase extract (Sharma et al. 2016) come the findings set out here.

The experiment addresses MAPK14 (human) (UniProt Q16539). In words: Enzyme Assay.

The term IC50 denotes the concentration at which inhibition is half-maximal. Low readings indicate greater potency in that assay, high ones weaker potency in that assay.

MAPK14 (human), sequence (Q16539 whole entry, looked up): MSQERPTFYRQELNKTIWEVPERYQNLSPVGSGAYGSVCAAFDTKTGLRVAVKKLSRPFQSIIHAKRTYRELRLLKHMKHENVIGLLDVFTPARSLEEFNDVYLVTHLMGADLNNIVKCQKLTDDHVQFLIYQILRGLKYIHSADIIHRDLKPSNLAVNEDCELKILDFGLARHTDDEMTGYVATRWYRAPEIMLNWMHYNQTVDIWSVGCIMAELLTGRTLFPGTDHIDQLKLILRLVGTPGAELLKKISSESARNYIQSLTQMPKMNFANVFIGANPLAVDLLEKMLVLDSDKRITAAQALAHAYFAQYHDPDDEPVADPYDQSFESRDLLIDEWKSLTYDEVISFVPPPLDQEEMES

In turn, `CN1CCCC[C@H]1c1nnc2ccc(O[C@@H]3CC[C@H](NC(=O)Nc4cc(C(C)(C)C)nn4-c4ccc(CO)cc4)c4ccccc43)cn12` came in with an IC50 below 0.01 µM.

In turn, `CN1CCC[C@H]1c1nnc2ccc(O[C@@H]3CC[C@H](NC(=O)Nc4cc(C(C)(C)C)nn4-c4ccc(O)cc4)c4ccccc43)cn12` yielded an IC50 below 0.01 µM.

As to `Cc1ccc(-n2nc(C(C)(C)C)cc2NC(=O)N[C@H]2CC[C@@H](Oc3ccc4nnc(N5CCCC[C@H]5C)n4c3)c3ccccc32)cc1`, the IC50 is below 0.01 µM.

Regarding `Cc1ccc(-n2nc(C(C)(C)C)cc2NC(=O)N[C@H]2CC[C@@H](Oc3ccc4nnc(N5CCC[C@@H](O)C5)n4c3)c3ccccc32)cc1`, the IC50 is below 0.01 µM.

`Cc1ccc(-n2nc(C(C)(C)C)cc2NC(=O)N[C@H]2CC[C@@H](Oc3ccc4nnc(C(C)(C)N5CCCC5)n4c3)c3ccccc32)cc1`: the IC50 was below 0.01 µM.

`CN1CCC[C@H]1c1nnc2ccc(O[C@@H]3CC[C@H](NC(=O)Nc4cc(C(C)(C)C)nn4-c4cccc(SCCO)c4)c4ccccc43)cn12`: the IC50 is below 0.01 µM.

On to `CN1CCC[C@H]1c1nnc2ccc(O[C@@H]3CC[C@H](NC(=O)Nc4cc(C(C)(C)C)nn4-c4cccc(OCCO)c4)c4ccccc43)cn12`, for which the IC50 is below 0.01 µM.

`Cc1ccc(-n2nc(C(C)(C)C)cc2NC(=O)N[C@H]2CC[C@@H](OCCN3CCOCC3)c3ccccc32)cc1`: the IC50 was 0.1 to 0.5 µM.

Consider `C[C@H]1CCCCN1c1nnc2ccc(O[C@@H]3CC[C@H](NC(=O)Nc4cc(C(C)(C)C)nn4-c4cccc(OCCN5CCC(F)CC5)c4)c4ccccc43)cn12`, for which the half-inhibitory concentration (IC50) was below 0.01 µM.

`C[C@H]1COCCN1c1nnc2ccc(O[C@@H]3CC[C@H](NC(=O)Nc4cc(C(C)(C)C)nn4-c4cccc(OCCN(C)C)c4)c4ccccc43)cn12` displayed an IC50 below 0.01 µM.

`C[C@H]1CCCCN1c1nnc2ccc(O[C@@H]3CC[C@H](NC(=O)Nc4cc(C(C)(C)C)nn4-c4cccc(OCCN5CCCN(C)CC5)c4)c4ccccc43)cn12` yielded an IC50 below 0.01 µM.

On to `C[C@@H]1CCC[C@H](C)N1c1nnc2ccc(O[C@@H]3CC[C@H](NC(=O)Nc4cc(C(C)(C)C)nn4-c4cccc(CN5CCN(C)CC5)c4)c4ccccc43)cn12`, for which the concentration for half-maximal inhibition (IC50) was below 0.01 µM.

Compound `Cc1ccc(-n2nc(C(C)(C)C)cc2NC(=O)N[C@H]2CC[C@@H](Oc3ccc4nnc(CCN5CCCC5)n4c3)c3ccccc32)cc1` registered an IC50 below 0.01 µM.

With `CN1CCC[C@H]1c1nnc2ccc(O[C@@H]3CC[C@H](NC(=O)Nc4cc(C(C)(C)C)nn4-c4ccc(CO)cc4)c4ccccc43)cn12`, the concentration for half-maximal inhibition (IC50) was below 0.01 µM.

Regarding `Cc1ccc(-n2nc(C(C)(C)C)cc2NC(=O)N[C@H]2CC[C@@H](Oc3ccc4nnc(NC(C)C)n4c3)c3ccccc32)cc1`, the half-maximal inhibitory concentration (IC50) was below 0.01 µM.

Take `CN(C)CCOc1cccc(-n2nc(C(C)(C)C)cc2NC(=O)N[C@H]2CC[C@@H](Oc3ccc4nnc(N5CCCCC56CC6)n4c3)c3ccccc32)c1`: the IC50 was below 0.01 µM.

The compound `CN1CCN(Cc2ccc(-n3nc(C(C)(C)C)cc3NC(=O)N[C@H]3CC[C@@H](Oc4ccc5nnc(N6CCCCC6)n5c4)c4ccccc43)cc2)CC1` showed a half-maximal inhibitory concentration (IC50) below 0.01 µM.

In the case of `C[C@H]1CCCCN1c1nnc2ccc(O[C@@H]3CC[C@H](NC(=O)Nc4cc(C(C)(C)C)nn4CCN4CCOCC4)c4ccccc43)cn12`, the IC50 was below 0.01 µM.

As for `Cc1ccc(-c2nc(C(C)(C)C)[nH]c2NC(=O)N[C@H]2CC[C@@H](Oc3ccc4nnc(N5CCCCC5)n4c3)c3ccccc32)cc1`, the IC50 was below 0.01 µM.

Turning to `Cc1ccc(-n2nc(C(C)(C)C)cc2NC(=O)N[C@H]2CC[C@@H](Oc3ccc4nnc([C@H]5CCCN5C)n4c3)c3ccccc32)cc1`, the IC50 was below 0.01 µM.

Compound `CN(C)CCn1cnc(-n2nc(C(C)(C)C)cc2NC(=O)N[C@H]2CC[C@@H](Oc3ccc4nnc(N5CCCCC5)n4c3)c3ccccc32)c1` returned an IC50 below 0.01 µM.

In the case of `Cc1ccc(-n2nc(C(C)(C)C)cc2NC(=O)N[C@H]2CC[C@@H](Oc3ccc4nnc(CCN5CCN(C)CC5)n4c3)c3ccccc32)cc1`, the IC50 was below 0.01 µM.

`Cc1ccc(-n2nc(C(C)(C)C)cc2NC(=O)N[C@H]2CC[C@@H](Oc3ccc4nnc(N5CC[C@H](O)C5)n4c3)c3ccccc32)cc1` displayed a 50% inhibitory concentration (IC50) below 0.01 µM.

For the compound `COc1c(NC(=O)N[C@H]2CC[C@@H](Oc3ccc4nnc(N5CCCCC5)n4c3)c3ccccc32)cc(C(C)(C)C)cc1NS(C)(=O)=O`, the IC50 is below 0.01 µM.

Compound `C[C@H]1CCCCN1c1nnc2ccc(O[C@@H]3CC[C@H](NC(=O)Nc4cc(C(C)(C)C)nn4C)c4ccccc43)cn12` registered an IC50 below 0.01 µM.

The compound `Cc1ccc(-n2nc(C(C)(C)C)cc2NC(=O)N[C@H]2CC[C@H](Oc3ccc4nnc([C@@H]5CCCN5C)n4c3)c3ccccc32)cc1` gave an IC50 below 0.01 µM.

In turn, `CCN1CCC[C@H]1c1nnc2ccc(O[C@@H]3CC[C@H](NC(=O)Nc4cc(C(C)(C)C)nn4-c4ccc(C)cc4)c4ccccc43)cn12` yielded an IC50 below 0.01 µM.

`C[C@H]1CCCCN1c1nnc2ccc(O[C@@H]3CC[C@H](NC(=O)Nc4cc(C(C)(C)C)nn4-c4cccc(CN5CCCC5)c4)c4ccccc43)cn12` came in with an IC50 below 0.01 µM.

Consider `Cc1ccc(-n2nc(C(C)(C)C)cc2NC(=O)N[C@H]2CC[C@@H](Oc3ccc4nnc(CC5CCN(CC(F)F)CC5)n4c3)c3ccccc32)cc1`, for which the concentration for half-maximal inhibition (IC50) was below 0.01 µM.

Compound `Cn1cc(-n2nc(C(C)(C)C)cc2NC(=O)N[C@H]2CC[C@@H](Oc3ccc4nnc(N5CCCCC5)n4c3)c3ccccc32)cn1` returned a concentration for half-maximal inhibition (IC50) below 0.01 µM.

Consider `Cc1ccc(-n2nc(C(C)(C)C)cc2NC(=O)N[C@H]2CC[C@@H](Oc3ccc4nnc(CN5CCNCC5)n4c3)c3ccccc32)cc1`, for which the IC50 was below 0.01 µM.

In the case of `Cc1ccc(-n2nc(C(C)(C)C)cc2NC(=O)N[C@H]2CC[C@@H](Oc3ccc4nnc(N5[C@H](C)CCC[C@@H]5C)n4c3)c3ccccc32)cc1`, the IC50 was below 0.01 µM.

In the case of `Cc1ccc(-n2nc(C(C)(C)C)cc2NC(=O)N[C@H]2CC[C@@H](Oc3ccc4nnc(CC5CCN(C)CC5)n4c3)c3ccccc32)cc1`, the 50% inhibitory concentration (IC50) was below 0.01 µM.

In turn, `COc1c(NC(=O)N[C@H]2CC[C@@H](Oc3ccc4nnc([C@@H]5CCCN5C)n4c3)c3ccccc32)cc(C(C)(C)C)cc1NS(C)(=O)=O` had an IC50 below 0.01 µM.

As to `Cc1ccc(-n2nc(C(C)(C)C)cc2NC(=O)N[C@H]2CC[C@@H](Oc3ccc4nnc(N5CCC(C)(O)CC5)n4c3)c3ccccc32)cc1`, the IC50 was below 0.01 µM.

The compound `Cc1ccc(-n2nc(C(C)(C)CO)cc2NC(=O)N[C@H]2CC[C@@H](Oc3ccc4nnc(N5CCCCC5)n4c3)c3ccccc32)cc1` returned a half-maximal inhibitory concentration (IC50) below 0.01 µM.

For the compound `Cc1ccc(-n2nc(C(C)(C)C)cc2NC(=O)N[C@H]2CC[C@@H](Oc3ccc4nnc(C(C)(C)N(C)C)n4c3)c3ccccc32)cc1`, the IC50 was below 0.01 µM.

The compound `C[C@H]1COCCN1c1nnc2ccc(O[C@@H]3CC[C@H](NC(=O)Nc4cc(C(C)(C)C)nn4CCO)c4ccccc43)cn12` displayed an IC50 below 0.01 µM.

`Cc1ccc(-n2nc(C(C)(C)C)cc2NC(=O)N[C@H]2CC[C@@H](Oc3ccc4nnc(N5CC[C@@H](CO)C5)n4c3)c3ccccc32)cc1` gave an IC50 below 0.01 µM.

Consider `CC(C)(C)c1cc(NC(=O)N[C@H]2CC[C@@H](Oc3ccc4nnc(N5CCCCC5)n4c3)c3ccccc32)n(-c2ccc(O)cc2)n1`, for which the IC50 was below 0.01 µM.

Compound `C[C@H]1CCCCN1c1nnc2ccc(O[C@@H]3CC[C@H](NC(=O)Nc4cc(C(C)(C)C)nn4-c4cccc(CCN5CCCN(C)CC5)c4)c4ccccc43)cn12` displayed an IC50 below 0.01 µM.

The compound `CC(C)(C)c1cc(NC(=O)N[C@H]2CC[C@@H](Oc3ccc4nnc(N5CCC(CO)CC5)n4c3)c3ccccc32)n(-c2ccc(CO)cc2)n1` had an IC50 below 0.01 µM.
